Data as given in publication PMC9727182, “Identification of pharmacokinetic markers for safflower injection using a combination of system pharmacology, multicomponent pharmacokinetics, and quantitative proteomics study” (Frontiers in Pharmacology, 2022).
Several values for one entry are separate records, joined by “and”; a condition that tells them apart may be missing. Equal entries are not always repeated. Blank lines part the entries; values can stand above or below the compound they belong to.

Assays:
[1] = tested on: H9c2 cardiomyocytes injured by H2O2; test: TMT quantitative proteomics of H2O2-injured cardiomyocytes; assay type: cell-based; conditions: 195 μM
Procedure: The procedures for cell culture, group and administration are similar to those in “2.7. […] Briefly, the difference is that H9c2 cells were seeded and cultured in a culture flask with a bottom area of 25 cm^2 with a density 1×10^5 cells/ml. After treatment, about 3×10^7 cells per group were collected for the next quantitative proteomics investigation, which was done by Jingjie PTM Biolabs (Hangzhou, China). All the procedures for quantitative proteomics can be found in the section of “5. Quantitative proteomics” of the Supplementary Material.
The quantitative proteomics study was carried out according to our previous report ([Li et al., 2022]). Relative quantitative values of proteins in two samples were compared via t-test. […] The identified difference proteins between groups were subjected further to principal component analysis (PCA). […] The subcellular structure location was analyzed using these proteins as objectives.

[2] = tested on: H9c2 cardiomyocytes injured by H2O2; test: Protection of cardiomyocytes injured by H2O2 (MTT); assay type: cell-based
Procedure: H9c2 cardiomyocytes obtained from Cell Bank of the Chinese Academy of Sciences (Shanghai, China) were cultured in DMEM (high glucose) supplemented with 1% P/S and 15% FBS in 5% CO2 at 37°C. The cells were collected with 0.25% trypsin, followed by re-seeding in 96-well multiplates with a density of 5×10^3 cells per well. The cell experiments were grouped as follows: normal group, model group (H2O2), administration groups and positive control groups (N-Acetyl-L-cysteine, NAC). […] After that, cells were incubated with 0.5 mg/ml of MTT for 4 h under standard condition, followed by addition of 150 µl DMSO into every well. The cell supernatants were finally removed and the optical density (OD) was recorded at 570 nm using a microplate reader (Thermo Fisher Scientific, United States). The protection rate of the compounds on H9c2 cardiomyocytes was calculated as (OD valueadministration group (or NAC group)-OD valuemodel group)/(OD valuenormal group-OD valuemodel group) ×100%.

[3] = Multicomponent pharmacokinetics in rat plasma after i.v. safflower injection (SI); conditions: for concentration at 15 min / AUC(0-inf) / AUC(0-t) / Cmax / MRT inf / MRT last / Vd / clearance / half-life: male, Sprague-Dawley, rat, plasma; for concentration at 15 min: intravenous; for AUC(0-inf) / AUC(0-t) / Cmax / MRT inf / MRT last / Vd / clearance / half-life: iv
Procedure: The animal experiments were approved by the Animal Care and Use Committee of the College of Animal Science (College of Bee Science), Fujian Agriculture and Forestry University (Approval Number: PZCASFAFU21012). 250 ± 20 g of male Sprague-Dawley (SD) rats were provided by Lab Animal Center in Fujian Medical University (Fuzhou, China).
Ten rats were divided into three groups (Low dose group, n = 4; medium and high groups, n = 3, respectively). […] For each rat, 2 ml of physiological saline was supplemented after 30 min sampling via intraperitoneal injection. The plasma samples were obtained by centrifugation at 3,000 rpm for 10 min and stored at −20°C until analysis.
Clear supernatant (5 μl) was injected into HPLC-MS for bioanalysis.
The sample was separated on a RD-C18 column (4.6 mm × 50 mm, 3.5 μm, Zhongpu Develop, China). The mobile phase incudes water with 0.1% acetic acid (A) and acetonitrile (B). […] The column temperature, flow rate and injection volume were set at 30°C, 0.5 ml/min and 5 μl, respectively.
Non-compartmental model was used to calculate the PK parameters by DAS 3.0 software (Chinese Pharmacologic Society, Beijing, China). A single-tailed t-test was carried out in the study.

[4] = Stability in diluted SI at room temperature; conditions: analyzed at 0, 2, 4, 8, 12, 24, and 48 h
[5] = Stability of 6 compounds of SI in rat plasma; conditions: for 10h in auto-sampler vials RE: extracted rat plasma; for Freeze-thaw stability (three cycles) RE / Long-term stability (-80℃,15 days) RE / 6h at room temperature RE: rat plasma
Text: The LC-MS method was validated by linearity, limits of detection (LOD), limits of quantification (LOQ), precision, accuracy, extraction recovery, matrix effect and stability of the 6 ingredients in rat plasma. Calibration curves were plotted using weighted linear regression of the peak area ratio of analyte to the IS against the corresponding nominal concentration of the analyte. LOD and LOQ were defined as the detectable concentration at which the ratio of signal to noise was more than 3 and 10, respectively. Intra- and inter-day accuracy and precision were assessed by detecting quality control (QC) samples using five replicates of rat samples at three concentration levels on one or three validation days, respectively. Accuracy and precision were expressed by relative error (RE) and relative standard deviation (RSD), respectively. The extraction recovery and matrix effect of the 6 components at above-mentioned three concentration levels were determined. Stability was assessed under the condition of placing un-treated plasma samples at room temperature for 6 h, and extracted plasma samples in auto-sampler for 10 h, as well as placing plasma samples within freeze-thaw three cycles and at −80 °C for 15 days.

Compound: hydroxysafflor yellow A [HSYA]
proteins significantly downregulated vs. M group ([1]; fold change ≤1/1.5, p <0.05): 205 proteins
proteins significantly upregulated vs. M group ([1]; fold change ≥1.5, p <0.05): 148 proteins
KEGG pathway regulation ([1]; vs. M group): downregulated the ribosome pathway and upregulated the lysosome pathway
changed protein expression located at the cytoplasm ([1]; vs. M group): 41.64%
changed protein expression located at the nucleus ([1]; vs. M group): 27.48%
cell viability vs. model group ([2]; 10 μM, pretreated 24 h, 250 μM H2O2 2 h): higher cell viability than the model group
anti-H2O2 injury effect (protection rate) ([2]; 1, 5 and 10 μM): concentration-dependent
protection rate ([2]; […] μM, preliminary test at maximum detected plasma concentration): about 26%

Compound: O=C(O)/C=C/c1ccccc1 [trans-cinnamic acid]
Stability RSD [4]: 1.86%

Compound: Nc1ncnc2c1ncn2[C@@H]1O[C@H](CO)[C@@H](O)[C@H]1O [adenosine]
concentration at 15 min ([3]; 2 ml/kg): < 0.5 ng/mL
Stability RSD [4]: 2.74%

The next lines start with results.

concentration at 15 min ([3]; 2 ml/kg): < 0.5 ng/mL
Compound: O=c1c(O)c(-c2ccc(O)cc2)oc2cc(O)cc(O)c12 [kaempferol]

detection in rat plasma ([3]; 1 h after administration (2 ml/kg of SI), preliminary test): can be detected
detection in rat plasma ([3]; behind 15 min after i.v. low dose administration (1 ml/kg of SI)): can’t be detected
AUC(0-inf) ([3]; 2 ml/kg): 23.4 ± 5.21 ng·h/mL
AUC(0-t) ([3]; 2 ml/kg): 20.1 ± 4.4 ng·h/mL
Cmax ([3]; 2 ml/kg): 44.7 ± 5.13 ng/mL
MRT inf ([3]; 2 ml/kg): 40.2 ± 6.6 min
MRT last ([3]; 2 ml/kg): 25.8 ± 2.4 min
Vd ([3]; 2 ml/kg): 0.35 ± 0.04 L/kg
clearance ([3]; 2 ml/kg): 8.83 mL/min/kg
half-life ([3]; 2 ml/kg): 28.8 ± 6.6 min
AUC(0-inf) ([3]; 4 ml/kg): 44 ± 45.2 ng·h/mL
AUC(0-t) ([3]; 4 ml/kg): 35.2 ± 31.1 ng·h/mL
Cmax ([3]; 4 ml/kg): 74.3 ± 2.52 ng/mL
MRT inf ([3]; 4 ml/kg): 31.8 ± 31.8 min
MRT last ([3]; 4 ml/kg): 19.2 ± 15 min
Vd ([3]; 4 ml/kg): 0.34 ± 0.09 L/kg
clearance ([3]; 4 ml/kg): 16.5 mL/min/kg
half-life ([3]; 4 ml/kg): 23.4 ± 21 min
detected mean maximum plasma concentration ([3]; rats, after administration of 4 ml/kg of SI): 0.074 μg/mL and 0.61 μM
10h in auto-sampler vials RE ([5]; spiked 40 ng/mL): -2.50%
10h in auto-sampler vials RE ([5]; spiked 400 ng/mL): 0.63%
10h in auto-sampler vials RE ([5]; spiked 10000 ng/mL): 4.23%
Freeze-thaw stability (three cycles) RE ([5]; spiked 40 ng/mL): 1.00%
Long-term stability (-80℃,15 days) RE ([5]; spiked 40 ng/mL): 14.50%
6h at room temperature RE ([5]; spiked 400 ng/mL): -3.70%
Freeze-thaw stability (three cycles) RE ([5]; spiked 400 ng/mL): 4.05%
Long-term stability (-80℃,15 days) RE ([5]; spiked 400 ng/mL): 0.45%
6h at room temperature RE ([5]; spiked 10000 ng/mL): -3.91%
Freeze-thaw stability (three cycles) RE ([5]; spiked 10000 ng/mL): -3.10%
Long-term stability (-80℃,15 days) RE ([5]; spiked 10000 ng/mL): 3.02%
Stability RSD [4]: 4.11%
Compound: O=Cc1ccc(O)cc1 [p-HBA, p-hydroxybenzaldehyde]
protection ([2]; 0.61 μM, preliminary test at maximum detected plasma concentration): absence of protection

concentration at 15 min ([3]; 2 ml/kg): < 0.5 ng/mL
Compound: Nc1nc2c(ncn2[C@@H]2O[C@H](CO)[C@@H](O)[C@H]2O)c(=O)[nH]1 [guanosine]
